Data on four compounds can be found in patent US20120027812A1, “INTRAOCULAR LENSES TREATED WITH ALKYLPHOSPHOCHOLINES FOR PHARMACOLOGICAL AFTERCATARACT PROPHYLAXIS” (priority 2009, published 2012).

A short description of series [1]: Stability of the coating to washing with physiological saline solution. Particulars: repeated washing or rinsing with physiological saline solution. Format: physicochemical. An excerpt:
1.3 Stability of the coating 10 intraocular lenses were coated with erufosin, as described in example 1.2. The lenses were subsequently each separately transferred into new test tubes and subjected to four washing steps with physiological saline solution. In a further extraction step using methanol/acetonitrile (ratio 9:1), the erufosin adhering to the lenses was removed and determined by mass spectroscopy. The amount of erufosin determined was between […] per lens.

For series [2], the system named is human lens epithelial cells. The series can be described thus: APC-coated intraocular lens laid on cultured lens epithelial cells (Example 3, FIG. 6 and 7). It counts as cell-based. The following applies: as coating on IOLs of hydrophobic acrylates, hydrophilic acrylates and silicones; MTT. The method, then: A tetrazolium reduction assay [MTT (3-[4,5-dimethylthiazol-2-yl]-2,5-diphenyltetrazolium bromide] (Sigma-Aldrich) was carried out to determine the cell count. The intraocular lenses were removed, the cells were washed with PBS and incubated with the MTT reagent for 1 hour at 37° C. Only vital cells metabolise the solution. Subsequently, the cell membrane was dissolved with DMSO (dimethylsulphoxide) and the optical thickness was measured in the ELISA reader at 550 nm. In this case, the optical thickness correlates with the number of proliferating cells.
The intraocular lenses coated with alkylphosphocholines are introduced into a cell culture volume of 500 μl, which corresponds to the volume of the human lens capsular bag in which the intraocular lenses are implanted in the human cataract operation. Moreover, the coated intraocular lenses in vitro are introduced into a cell culture with human lens epithelial cells which are already proliferating. […]
Effectiveness of an Intraocular Lens Coated with APCs in the Prophylaxis of Aftercataract Intraocular lenses are coated with APC, as explained in Example 1,m and kept sterile at room temperature. […] After 3, 5 and 7 days, the lenses are removed and the cell count of the cells left in the cell culture dishes are determined, as described in 2.1, by cell counters and by the MTT test. […]

The test system of series [3] is rat retina. Briefly: Functional analysis on retina ex vivo (electroretinogram). Particulars: concentration of up to 25 μM in the total solution.
Series [4] concerns Müller glial cells and subretinal pigment epithelial cells. The following applies: single intravitreal administration one day after induced retinal detachment; cited from earlier work.
The subject of a further series is cat eyes (retina). Briefly: Long-term tolerance after intravitreal administration in cat eyes. It counts as in vivo. The following applies: 28 days after intravitreal administration.
For another series, the system named is rat eyes (retina). Particulars: seven days after a single injection into the vitreous body; cited from earlier work.
The test system of series [5] is rat retina. The following applies: clinically administered doses (4 mg/ml); cited from earlier work.

Turning to `CCCCCCCC/C=C\CCCCCCCCCCCCOP(=O)([O-])OCCC[N+](C)(C)C` [ErPC3, erucylphosphohomocholine], the “removal of the coating from the lenses” value in series [1] is “no noticeable removal”. For the same compound, the “cell growth of lens epithelial cells which are already proliferating” value in series [2] is given as “can inhibit the cell growth”. Besides, the “changes in the electroretinogram” value in the series with rat retina [3] is “did not produce any changes in the electroretinogram”. In series [4], the “intraretinal proliferation of Müller glial cells and subretinal pigment epithelial cells” value was “significant inhibition”; the “morphologically detectable toxic side-effects” value is recorded as “without morphologically detectable toxic side-effects”.
On to `CCCCCCCC/C=C\CCCCCCCCCCCCOP(=O)([O-])OCC[N+](C)(C)C` [ErPC, erucylphosphocholine], for which, in the series with cat eyes (retina), the retinal toxicity entry is on record as “no sign of retinal toxicity”. In addition, in the series with rat eyes (retina), the “damage to the retinal function (light and electron microscopy, ERG)” value is recorded as “no damage to the retinal function could be detected”.
Consider `CCCCCCCC/C=C\CCCCCCCCOP(=O)([O-])OCC[N+](C)(C)C` [OIPC, oleylphosphocholine], for which the “cell growth of lens epithelial cells which are already proliferating” value in series [2] is on record as “can inhibit the cell growth”.
Regarding `C[C@]12C=CC(=O)C=C1CC[C@H]1[C@@H]3C[C@@H](O)[C@](O)(C(=O)CO)[C@@]3(C)C[C@H](O)[C@@]12F` [triamcinolone], the “retinal toxicity on the retina ex vivo test subject” value in the series with rat retina [5] is recorded as “retinal toxicity”.
